Like-named read-outs stand apart in the source and are kept apart here.

We go through three compounds from US8592382B2, “Formulations for the oral administration of therapeutic agents and related methods” (The University of British Columbia, priority 2007, dated 2013).

The conditions of data set [1]: oral; cited from earlier work.
A short description of data set [2]: Solubility of the drug substance in water, solvents or simulated GI media. The class given is physicochemical.
A further data set relates to Leishmania. Particulars: visceral leishmaniasis, IV therapy; cited from earlier work.
For data set [3] the following is noted: cited from earlier work.

`C[C@@H]1[C@H](O)[C@@H](C)/C=C/C=C/C=C/C=C/C=C/C=C/C=C/[C@H](O[C@@H]2O[C@H](C)[C@@H](O)[C@H](N)[C@@H]2O)C[C@@H]2O[C@](O)(C[C@@H](O)C[C@@H](O)[C@H](O)CC[C@@H](O)C[C@@H](O)CC(=O)O[C@H]1C)C[C@H](O)[C@H]2C(=O)O` (relative stereo) [amphotericin B, [1R-(1R*,3S*,5R*,6R*,9R*,11R*,15S*,16R*,17R*,18S*,19E,21E,23E,25E,27E,29E,31E,33R*,35S*,36R*,37S,)]-33-[(3-amino-3,6-dideoxy-β-D-mannopyranosyl)oxy]1,3,5,6,9,11,17,37-octahydroxy-15,16,18-trimethyl-13-oxo-14,39-dioxabicyclo-[33.3.1]nonatriaconta-19,21,23,25,27,29,31-heptaene-36-carboxylic acid]: the Bioavailability entry in data set [1] was “negligible”. Moreover, the “AmpB solubility in aqueous solution” value in data set [2] (aqueous solution (pH 7)) was “negligible”. For the same compound, in data set [2] (simulated gastric and intestinal fluids), the “Solubility of AmpB neat powder in simulated GI media” value was “not soluble”. For the same compound, in the data set with Leishmania, the Cure rate is given as 97%. Also, the “Solubility of crystalline substance in water” value in data set [3] (water) was “insoluble”.

With `CC(=O)O[C@@]12CO[C@@H]1C[C@H](O)[C@@]1(C)C(=O)[C@H](O)C3=C(C)[C@@H](OC(=O)[C@H](O)[C@@H](NC(=O)OC(C)(C)C)c4ccccc4)C[C@@](O)([C@@H](OC(=O)c4ccccc4)[C@H]21)C3(C)C` [docetaxel], the Solubility in water in data set [3] (water) was 10 to 25 µg/mL.

On to `Clc1ccc(COC(Cn2ccnc2)c2ccc(Cl)cc2Cl)cc1` (centres unmarked) [econazole], for which the Solubility in ethanol in data set [3] (ethanol) is no more than 20000 µg/mL. Besides, the Solubility in water in data set [3] (water, 19-66° F.) is less than 1000 µg/mL.
